In patent US9719987B2, “Immunoadsorbent compositions comprising hyaluronic acid oligosaccharides” (FUNDACIO INSTITUT D'INVESTIGACIO BIOMEDICA DE BELLVITGE …, priority 2012, dated 2017):
Where “and” joins values, the source holds several entries; their conditions need not be identical. Equal values may be shown once.

How the values were obtained:
[1] = tested on: anti-carbohydrate antibodies of baboon serums; test: Glycan array screening of baboon serums (406 glycans); type: binding, baboons (Papio anubis); settings: for average±S.D. level of antibodies: before transplant/PRBC, animals without anti-Gal removal (A15, A14) or sampled before GAS914 (C63); for change of anti-carbohydrate antibodies after PRBC exposure: animal E19
Source text: Heterotopic pig heart and kidney were placed in the abdominal cavity of baboons as previously described (Schmoeckel M et al. 1998 Transplantation 65:1570-1577; Cozzi E et al. 1997 Transplantation. 64:1383-1392). Blood samples for anti-carbohydrate antibody analysis were obtained from each animal before transplantation and at acute humoral xenotransplant rejection (AHXR).
Three animals (D29, E19 and E7) were exposed to weekly injections of 5 cubic centimeters (cc) of PRBC three times and blood samples for anti-carbohydrate antibodies were analysed one week after last injection. Another animal received 7 daily injections of 5 cc of PRBC (C63), until an augment of the level of anti-pig hemolytic antibodies (APHA) was observed, and blood samples were analysed at days 2, 20 and 30 relative to the first PRBC injection.
The carbohydrate-binding specificity of baboon serums obtained before and after pig organ xenotransplantation or PRBC exposure was investigated on glycan array v4.1 comprised of 406 glycans (Consortium for Functional Glycomics, Protein-Glycan Interaction Core-H) (http://www.functionalglycomics.org). Two different studies were performed: Consortium for Functional Glycomics projects #1313 and #1577. Pre and post-immunization samples from each animal were analysed in the same glycoarray study with exception of C63 day 20, which was performed in study #1577 whilst the other samples from this animal were analysed in study #1313. In order to assess the potential effect of a different glycoarray study, a linear mixed model with repeated measures was fitted for each carbohydrate, with its log expression as dependent variable and type of sample (pre or post-immunization) and the study (#1313 or #1577) as independent variables.

[2] = tested on: hyaluronan (HA antigens) in pig xenograft tissue; test: Immunohistochemistry of IgM and IgG deposits in xenografts at AHXR with hyaluronidase pre-treatment; parameters: species or system pig xenograft in baboon
Procedure: In all the transplants an open xenograft biopsy was obtained 30 minutes after reperfusion, as well as at autopsy after AHXR. Tissue samples were fixed in 10% buffered formalin for at least 24 hours, dehydrated, and embedded in paraffin. Sections of 4 μm thickness were stained with hematoxylin and eosin Immunohistochemical examinations for IgG and IgM were performed in paraffin-embedded material. After inhibition of endogenous alkaline phosphatase with levamisol for 10 minutes, samples were incubated with goat anti-human IgG and IgM alkaline phosphatase conjugated (Sigma-Aldrich) for 30 minutes at 1:50 dilution. Tissue samples where then incubated with the EnVision™ G|2, Rabbit/Mouse (LINK) (Dako) following product recommendations. This reagent is a dextran polymer, which also carries antibodies to rabbit and mouse immunoglobulins. Finally, an alkaline phosphatase-labelled amplification polymer is added. The reaction is visualized by Permanent Red Chromogen also included in the kit. To investigate the potential role of hyaluronan as antigen some tissue sections were pre-treated with 50 u/mL of Streptomyces hyaluronidase (Sigma-Aldrich) for two hours at 37° C., which unlike other hyaluronidases is specific for hyaluronan.
To investigate the potential impact of HA antigens in AHXR, the presence of IgM and IgG deposits in tissue samples was investigated with and without previous incubation with Streptomyces hyaluronidase, which is specific for HA.

[3] = tested on: human endothelial cells (HMEC); test: Flow cytometry of non-human primate antibody binding to HMEC pre-treated with hyaluronidase; type: cell-based
Source text: The authors have previously shown that immunization of non-human primates with pig blood is associated with the generation of xenoantibodies cross-reactive to human endothelial cells. To investigate whether HA antigens were involved in this reactivity, human endothelial cells (HMEC) were pre-treated with 20 Um′ of hyaluronidase from Streptomyces, which is specific for HA, for one hour. This hyaluronidase cleaves HA in fragments of 4 and 6 saccharides (tetra- and hexasaccharides). […] To show the effect of hyaluronidase pre-treatment in HA on HMEC cells, a hyaluronan-binding-protein (HABP), which binds to large molecular weight HA, was used as control (FIG. 9C).

[4] = tested on: anti-HA antibodies in human serum; test: Specific ELISA for HA oligosaccharides, human serum; type: binding
Source text: (§1) The enzyme-linked immunosorbent assay (ELISA) plates were coated with HA oligosaccharides (disaccharide, tetrasaccharide and decasaccharide) conjugated with polyacrylamide, obtained from Shemyakin-Ovchinnikov Institute of Biorganic Chemistry, Russian Academy of Science (Moscow, Russia). The disaccharide form was synthesized in this institution, whilst the tetrasaccharide and decasaccharide molecules were obtained from Sigma, Spain, and bound to polyacrylamide in this center. The protocol for determination of anti-HA antibodies was based in previously described ELISAs to determine other anti-carbohydrate antibodies with minimal modifications (Mañez R et al. 2001 Xenotransplantation 8: 15-23; Obukhova P et al. 2007 Xenotransplantation 14: 627-635).
Humans also have preformed antibodies against HA disaccharide (von Gunten S et al. 2009 J Allergy Clin Immunol 123: 1268-1276; Huflejt M E et al. 2009 Mol Immunol 46: 3037-3049). Thus, we used human serums randomly selected to investigate by specific ELISAS, the presence of preformed antibodies against HA disaccharide, tetrasaccharide and decasacchride. Also, antibodies against HA oligosaccharides were investigated in rats immunized either with PRBC and hamster blood following two protocols to generate mainly IgM or IgG antibodies.
The inventors analyzed the level of anti-HA disaccharide antibodies by specific ELISA in patients with SLE and anti-DNA antibodies (Group A; n=17), SLE without anti-DNA antibodies (Group B; n=10) and controls from blood bank (Group C; n=13). The values for IgM anti-HA disaccharide antibodies were (mean±S.E.) 0.58±0.07 in Group A, 0.71±0.13 in Group B, and 0.74±0.11 in Group C, with p=0.1 in ANOVA comparing Group A with Groups B or C. For IgG, the values were 0.37±0.08 in Group A, 0.27±0.05 in Group B, 0.27±0.03 in Group C, with a p=0.3 in ANOVA comparing Group A with Groups B or C.

[5] = tested on: anti-HA antibodies in rat serum; test: Specific ELISA for HA oligosaccharides, rats immunized with PRBC or hamster blood; type: binding; settings: for level of preformed antibodies in rats compared to humans: rats before exposure; for level of preformed antibodies in rats compared to humans / production of IgM antibodies: FIG. 6; for production of IgM antibodies / production of IgG antibodies: rats; for production of IgM antibodies: three injections of PRBC or hamster blood every other day; for production of IgG antibodies: three injections of PRBC or hamster blood every other week, FIGS. 7 and 8
Procedure: Rats were immunized either with PRBC and hamster blood following two protocols to produce mainly IgM or IgG anti-carbohydrate antibodies. Three injections of 1 ml every other day (days 0, 2 and 4) and drawn of blood sample on day 5 was used to investigate IgM antibodies, and three injections every two weeks times 3, with blood obtained 12 days after last injection was used to investigate IgG antibodies.
as §1

[6] = baboon C63, 200 mg/kg CyP over 4 days from day 20, day relative to first PRBC injection
Source text: The dose of CyP was chosen because it largely eliminates the mature immune system, leading to a major reduction in antibody and autoantibody levels, while leaving hematopoietic precursors intact.

[7] = hyaluronidase pre-treatment 20 Um′, one hour, serum of primates immunized with pig blood
[8] = randomly selected human serums, FIG. 5
[9] = animal D17, kidney xenotransplantation
[10] = Group A: SLE and anti-DNA antibodies, n=17
[11] = Group B: SLE without anti-DNA antibodies, n=10
[12] = Group C: controls from blood bank, n=13

With `CC(=O)N[C@H]1C(O)O[C@H](CO)[C@@H](O[C@@H]2O[C@H](CO)[C@H](O)[C@H](O[C@H]3O[C@H](CO)[C@H](O)[C@H](O)[C@H]3O)[C@H]2O)[C@@H]1O` (stereo partly drawn) [Gal, Galα1-3Galβ1-4GlcNAc, reference compound] the “average±S.D. level of antibodies” value [1] was 3865±2892 net fluorescence units (NFU).
In the case of Hyaluronidase, the “IgG antibody deposits in xenograft at AHXR, semiquantitative score” value (“IgG antibody deposits in xenograft” below) ([2]; animal A14, AHXR III) is reported as “complete disappearance”, the “IgM antibody deposits in xenograft at AHXR, semiquantitative score” value (“IgM antibody deposits in xenograft” below) ([2]; animal A14, AHXR III) is reported as “notably reduced” and the “IgG antibody deposits in xenograft” value ([2]; animal A15, AHXR III) is reported as “complete disappearance”. For the same compound, the “IgM antibody deposits in xenograft” value ([2]; animal A15, AHXR III) was “did not show any change”, the “IgG antibody deposits in xenograft” value ([2]; animal D10, AHXR I) was “complete disappearance” and the “IgM antibody deposits in xenograft” value ([2]; animal D10, AHXR I) was “disappeared”. The “IgG antibody deposits in xenograft” value ([2]; animal D12, AHXR III) was “remarkable reduction”, the “IgM antibody deposits in xenograft” value ([2]; animal D12, AHXR III) was “notably reduced” and the “IgG antibody deposits in xenograft” value ([2]; animal D17, AHXR III) was “remarkable reduction”. For the same compound, the “IgM antibody deposits in xenograft” value ([2]; animal D17, AHXR III) was “did not show any change”, the “non-human primate IgG antibody binding to HMEC” value [3, 7] was “augment” and the “non-human primate IgM antibody binding to HMEC” value [3, 7] was “not observed”. The “HA expression on HMEC detected with hyaluronan-binding-protein (HABP)” value ([3]; hyaluronidase pre-treatment, compared to the baseline) was “reduction of HA expression”.
In the case of `CC(=O)N[C@H]1[C@H]([C@H](O)[C@H](O)CO)O[C@](OCCCN)(C(=O)O)C[C@@H]1O` [Glycan 14, Neu5Acβ-Sp8, reference compound], the “change of anti-carbohydrate antibodies after PRBC exposure” value [1] is reported as “barely changed”.
In the case of `CC(=O)N[C@H]1[C@H](O[C@H]2[C@H](O)[C@@H](O)[C@H](O[C@H]3[C@H](O)[C@@H](CO)OC(O)[C@@H]3NC(C)=O)O[C@@H]2C(=O)O)O[C@H](CO)[C@@H](O)[C@@H]1O[C@@H]1O[C@H](C(=O)O)[C@@H](O)[C@H](O)[C@H]1O` (stereo partly drawn) [HA tetrasaccharide], the “preformed IgM antibodies in human serum” value [4, 8] is reported as “preformed IgM antibodies”, the “level of preformed antibodies in rats compared to humans” value [5] is reported as “lower level” and the “production of IgM antibodies” value [5] is reported as “significant production of IgM antibodies”. The “production of IgG antibodies” value [5] was “significant production”.
With GlcAβ1-3GlcNAcβ-Sp8 [Glycan 300] the “cases with antibodies within the top 20 increases after PRBC exposure” value ([1]; PRBC exposure, 4 baboons) was “all the cases”, the “change of anti-carbohydrate antibody reactivity at AHXR vs before transplantation” value (“change … vs before transplantation” below) ([1]; animal A14, severe rejection) was “More significant raises” and the “change … vs before transplantation” value ([1]; animal A15, no treatment, survival 4 days) was “decreased reactivity”. The “augment of antibodies after PRBC exposure” value ([1]; animal C63, day 20, two weeks after end of PRBC injections) was “evidenced”, the “level of antibodies after PRBC exposure” value ([1]; animal C63, day 30 after CyP treatment) was “higher level of anti-carbohydrate antibodies” and the “augment of antibodies after PRBC exposure” value ([1]; animal C63, day two, during PRBC exposure) was “not present”. The “change … vs before transplantation” value ([1]; animal D10, mild rejection) was “moderated augment”, the “change … vs before transplantation” value ([1]; animal D12, severe rejection) was “More significant raises” and the “change … vs before transplantation” value [1, 9] was “moderated augment”. The “change of anti-carbohydrate antibodies after PRBC exposure” value [1] was “higher level and increase”, the “rank of average level of antibodies” value ([1]; baboons before exposure to PRBC) was “highest reactivity” and the “rank of average level of antibodies” value ([1]; baboons before pig organ xenotransplantation) was “second highest reactivity”. For the same compound, the “average±S.D. level of antibodies” value [1] was 18332±14201 net fluorescence units (NFU), the “IgG anti-HA disaccharide antibodies (mean±S.E.)” value [4, 10] was 0.37±0.08 and the “IgM anti-HA disaccharide antibodies (mean±S.E.)” value [4, 10] was 0.58±0.07. For the same compound, the “IgG anti-HA disaccharide antibodies (mean±S.E.)” value [4, 11] was 0.27±0.05, the “IgM anti-HA disaccharide antibodies (mean±S.E.)” value [4, 11] was 0.71±0.13 and the “IgG anti-HA disaccharide antibodies (mean±S.E.)” value [4, 12] was 0.27±0.03. The “IgM anti-HA disaccharide antibodies (mean±S.E.)” value [4, 12] was 0.74±0.11, the “preformed IgG antibodies in human serum” value [4, 8] was “preformed IgG antibodies are only against HA disaccharide” and the “preformed IgM antibodies in human serum” value [4, 8] was “preformed IgM antibodies”. The “level of preformed antibodies in rats compared to humans” value [5] was “lower level”, the “production of IgM antibodies” value [5] was “significant production of IgM antibodies” and the “production of IgG antibodies” value [5] was “significant production”.
For `C[C@@H]1O[C@@H](OCCCN)[C@H](O)[C@H](O)[C@H]1O` [Glycan 11, Rha-Sp8, reference compound], the “change … vs before transplantation” value [1, 9] was “augmented”.
In the case of `O=P1(N(CCCl)CCCl)NCCCO1` (stereo not drawn) [CyP, cyclophosphamide], the “day of death because of side effects from CyP treatment” value [6] is reported as 31 days and 30 days.
